Test results taken from patent US4333941A, “Inhibition of enveloped viruses with phenyl ketones” (The Dow Chemical Company, priority 1977, dated 1982).
Counter-ions that a name gives are not always drawn. Like-named read-outs stand apart in the source and are kept apart here.

Columns and labels:
HSV-1 [1] = test: Inactivation of HSV-1, plaque assay on Vero or HeLa cells (Example 1); type: cell-based, herpes simplex virus type I; conditions: Human alphaherpesvirus 1, 1 h, one hour at 37° C., versus water control, read-out: Concentration Producing 50% Virus Inhibition
HSV-1 [2] = test: Inactivation of HSV-1 (Example 2); type: cell-based, herpes simplex virus type I; conditions: Human alphaherpesvirus 1, 1 h
HSV-2 [3] = test: In vivo treatment of genital cutaneous mucosa infected with HSV-2 (Example 8); conditions: all the animals, including placebo and control
rhinovirus = test: Inactivation of rhinovirus (Example 2); type: cell-based
HSV-2 [4] = test: Inactivation of one strain of HSV-2 (Example 3); conditions: Human alphaherpesvirus 2, 1 h, read-out: concentration for ninety nine percent inactivation
[5] = tested on: NDV (Newcastle's disease virus); test: organism not typed; type: cell-based; conditions: 1 h, read-out: concentration for fifty percent inactivation
HSV-1 [6] = test: Inactivation of two strains of HSV-1 (Example 3); conditions: Human alphaherpesvirus 1, 1 h, read-out: concentration for ninety nine percent inactivation
HSV-1, Stohr strain = test: In vivo treatment of HSV-1 skin infection in guinea pigs (Example 5); conditions: 2 percent in 5 percent ethanol, topical hourly
[7] = tested on: SFV (semliki forest virus); test: Inactivation of SFV (Example 2); type: cell-based; conditions: 1 h, one hour exposure, read-out: concentration for fifty percent inactivation
HSV-2 [8] = conditions: guinea pig, in vivo
HSV-1 [9] = conditions: guinea pig, in vivo
poliovirus = type: cell-based; conditions: poliovirus (picorna viruses)
influenza = test: Inactivation of influenza virus (Example 2); type: cell-based; conditions: unidentified influenza virus, 1 h
vaccinia virus = test: microbe, parasite or virus in culture; type: cell-based; conditions: Orthopoxvirus vaccinia, 1 h, read-out: concentration for 50 percent inactivation
[10] = tested on: VSV (vesicular stomatitis virus); test: microbe, parasite or virus in culture; type: cell-based; conditions: 1 h
mice = conditions: cited from earlier work
[11] = read-out: concentration for fifty percent inactivation

Compound CCCCOc1ccc(OCCCN2CCOCC2)cc1 [pramoxine . HCl] has an IC50 (HSV-1 [1]) of 675 µM.

Work on CCCCOc1ccc(C(=O)CCN2CCCCC2)cc1 [Dyclonine . HCl, 4-n-butoxy-β-(1-piperidyl)-propiophenone hydrochloride] yielded an IC50 (HSV-1 [2]; [11]) of no more than 1000 µM, a killing at 500 µM (HSV-1 [2]; read-out: inactivation of HSV) greater than 90% and an IC50 (HSV-1 [1]) of 125 µM. For the same compound, the hyperkeratosis (HSV-2 [3]) was “hyperkeratosis was noted in all the animals”, the percent inactivated (rhinovirus) was “less than 50%” and the IC99 (HSV-2 [4]) was less than 1000 µM. For the same compound, the IC50 [5] was no more than 1000 µM, the IC99 (HSV-1 [6]) was less than 1000 µM and the “sites with herpes lesions” value (HSV-1, Stohr strain; 48 hours after inoculation, placebo 88 percent) was 31% of the sites. The “sites with herpes lesions” value (HSV-1, Stohr strain; by 72 hours) was 7% of the sites, the IC50 [7] was no more than 1000 µM and the detrimental adverse reactions (HSV-2 [8]) was “No detrimental adverse reactions were observed”. The hyperkeratosis (HSV-2 [8]) was “mild hyperkeratosis noted in some of the animals”, the “Candida (yeast) infection” value (HSV-1 [9]) was “a Candida (yeast) infection developed” and the percent inactivated (poliovirus) was “less than 50%”. The IC50 (influenza; [11]) was no more than 1000 µM, the killing at 500 µM (influenza; read-out: inactivation of influenza virus) was roughly 80% and the IC50 (vaccinia virus) was no more than 2000 µM. The IC50 [10, 11] was no more than 1000 µM, the killing at 500 µM ([10]; read-out: inactivation of VSV) was greater than 99% and the “acute LD50” value (mice; intraperitoneal injection) was 52.8 mg/kg. For the same compound, the “acute LD50” value (mice; intravenous) was 19.5 mg/kg.

In the case of CC(C)COc1ccc(C(=O)CCN2CCCCC2)cc1 [4'-Isobutoxy-3-piperidino-propiophenone . HCl], the IC50 (HSV-1 [1]) is reported as 200 µM.

In the case of CCCCOc1cc(C(=O)NCCN(CC)CC)c2ccccc2n1 [dibucaine . HCl], the IC50 (HSV-1 [1]) is reported as 800 µM.

With CCCOc1ccc(C(=O)CCN2CCCCC2)cc1 [4'-Propoxy-3-piperidino-propiophenone . HCl] the IC50 (HSV-1 [1]) was 400 µM.

In the case of CCCCOc1ccc(C(=O)CCN2CCOCC2)cc1, the IC50 (HSV-1 [1]) is reported as 125 µM.

For O=C(CCN1CCCCC1)c1cccc(Cl)c1 [3'-Chloro-3-piperidino-propiophenone . HCl], the IC50 (HSV-1 [1]) was 125 µM.

For CCOC(=O)c1ccc(N)cc1 [benzocaine], the IC50 (HSV-1 [1]) was greater than 2000 µM.

CCCOc1ccc(C(=O)OCCN(CC)CC)cc1N [proparacaine . HCl] gave an IC50 (HSV-1 [1]) greater than 2000 µM.

CCN(CC)CC(=O)Nc1c(C)cccc1C [lidocaine . HCl] gave an IC50 (HSV-1 [1]) greater than 2000 µM.

Compound COc1ccc(C(=O)CCN2CCCCC2)cc1 [4-Methoxy-3-piperidino propiophenone . HCl] has an IC50 (HSV-1 [1]) of 125 µM.

CCCCNc1ccc(C(=O)OCCN(C)C)cc1 [tetracaine . HCl] showed an IC50 (HSV-1 [1]) greater than 2000 µM.

CCCCOc1cc(C(=O)OCCN(CC)CC)ccc1N [benoxinate . HCl] gave an IC50 (HSV-1 [1]) greater than 2000 µM.

Compound CCCCOc1ccc(C(=O)C(C)C[N+]2(C)CCCCC2)cc1 (stereo not drawn) [1-[2-(4-butoxybenzoyl)-2-methylethyl]-1-methyl-piperidinium iodide] has an IC50 (HSV-1 [1]) greater than 750 µM.

In the case of CCCCCCOc1ccc(C(=O)CCN2CCCCC2)cc1 [4'-Hexyloxy-3-piperidino-propiophenone . HCl], the IC50 (HSV-1 [1]) is reported as less than 125 µM.

In the case of CCOc1ccc(N=C(C)Nc2ccc(OCC)cc2)cc1 [phenacaine . HCl], the IC50 (HSV-1 [1]) is reported as greater than 2000 µM.

With CCCCCCCCOc1ccc(C(=O)CCN2CCCCC2)cc1 [4'-n-Octyloxy-3-piperidino-propiophenone . HCl] the IC50 (HSV-1 [1]) was less than 125 µM.

Compound CCN(CC)CCOC(=O)c1ccc(N)cc1 [procaine . HCl] has an IC50 (HSV-1 [1]) greater than 2000 µM.

Work on CCOc1ccc(C(=O)CCN2CCCCC2)cc1 [4'-Ethoxy-3-piperidino-propiophenone . HCl] yielded an IC50 (HSV-1 [1]) of 1500 µM.

CC(=O)C(CN1CCCCC1)c1ccccc1 (stereo not drawn) [3-Phenyl-4-piperidino-2-butanone . HCl] gave an IC50 (HSV-1 [1]) of 550 µM.

For CCCCOc1ccc(C(=O)CC[N+]2(C)CCCCC2)cc1 [1-[2-(4-butoxybenzoyl)-ethyl]-1-methyl piperidinium iodide], the IC50 (HSV-1 [1]) was less than 125 µM.

Compound CCCCOc1ccc(C(=O)CCN(CC)CC)cc1 [4'-Butoxy-3-diethylamino-propiophenone . HCl] has an IC50 (HSV-1 [1]) of less than 125 µM.

Work on O=C(CCN1CCCCC1)c1ccc(Cl)c(Cl)c1 [3',4'-Dichloro-3-piperidino-propiophenone . HCl] yielded an IC50 (HSV-1 [1]) of less than 125 µM.

CCCCCCCCCCOc1ccc(C(=O)CCN2CCCCC2)cc1 [4'-n-Decyloxy-3-piperidino-propiophenone . HCl] showed an IC50 (HSV-1 [1]) of less than 125 µM.
